Results on two compounds are retold here after EP0670315A1, “Triazole oxime derivatives having antimycotic acitivity” (priority 1994, dated 1995).

For data set [1] the following is noted: reported in prior art; cited from earlier work.
Data set [2] in a line: Toxicity test, repeated oral administration to mice. Format: in vivo. To be noted: 4-wk old mice, 5 consecutive days, 100 mg/kg. The protocol: The four selected compounds of the invention (those prepared in Examples 1, 2, 9 and 30) were administered orally to 4-wk old mice for 5 consecutive days at a dose of 100 mg/kg.
The test system of data set [3] is Aspergillus fumigatus strain IFM41944. Description: Treatment of infection, protocol 1: mice infected with Aspergillus fumigatus, oral treatment, survival. Format: in vivo. To be noted: Aspergillus fumigatus, IFM41944; ICR male mice, i.v. infection 1 × 10⁷ conidia; oral one hour after infection and following four days once a day; survival at 7th day; Litchfield-Wilcoxon; read-out: ED₅₀. As for the experimental part:
Mice infected with Aspergillus fumigatus were administered selected compounds of the invention orally and their therapeutic effect was measured. Stated specifically, ICR male mice (4-wk old) in groups each consisting of 10 animals were injected with Aspergillus fumigatus strain IFM41944 by injecting it into the tail vein at a concentration of 1 × 10⁷ conidia per animal. Each test compound was administered orally to the mice one hour after the infection and for the following four continuous days on a once-a-day basis. The number of mice that survived at the 7th day of the infection was counted (the day of infection was day "zero") and the ED₅₀ of each test compound was calculated by the Litchfield-Wilcoxon method to estimate its therapeutic effect.

Data set [4] is described as follows: Solubility (usefulness as injections). Format: physicochemical.

As for `CON=CC(C)(C)C(O)(Cn1cncn1)c1ccc(Cl)cc1` (racemic) [Bay R 3783, (±)-3-(4-chlorophenyl)-2,2-dimethyl-3-hydroxy-4-(1,2,4-triazole-1-yl)butanol-oxime O-methylether], in data set [1], the “hepatotoxicity as a side effect” value is “has hepatotoxicity as a side effect”.
On to `CC(C)C(=NOCn1cncn1)C1(C(O)(Cn2cncn2)c2ccc(F)cc2F)CC1` (stereo not shown) [Example 30, 1-[1-[1-(2,4-difluorophenyl)-1-hydroxy-2-(1H-1,2,4-triazol-1-yl)ethyl]cyclopropyl]-2-methyl-1-propanone O-[(1H-1,2,4-triazol-1-yl)methyl]oxime], for which, in data set [2], the evidence for abnormality result is “no evidence for abnormality”. Moreover, in data set [3], the ED50 came to 43.4 mg/kg. For the same compound, the solubility entry in data set [4] is reported as “good enough solubility to be useful as injections”.
